Results: BigSolDB 2.1

CN(CCOc1ccc(CC2SC(=O)NC2=O)cc1)c1ccccn1 (configuration not stated)
solubility (mole fraction)
Conditions	in acetone	in acetonitrile	in ethanol	in ethyl acetate	in isopropanol	in methanol	in methyl acetate	in n-butanol	in n-butyl acetate	in n-propanol
283.15 K	0.00177	0.000267	0.000245	0.00123	0.00013	0.000139	0.00123	0.000341	0.000926	0.000276
293.15 K	0.00278	0.000453	0.000341	0.00205	0.000173	–	0.00205	0.000371	0.00117	0.00028
303.15 K	0.00455	0.000744	0.000458	0.003	0.000282	0.000444	0.00335	0.00042	0.00235	0.000323
313.15 K	0.00691	0.00126	0.00067	0.00441	0.000529	0.000745	0.0052	0.00063	0.00355	0.000741
323.15 K	0.00992	–	0.00124	0.00649	0.000992	0.00132	0.00795	0.00147	0.00505	0.00133
333.15 K	–	0.00352	0.00244	0.0118	0.00218	0.00235	0.0126	0.00293	0.0092	0.0029
